# Laboratory results: BindingDB's records for doi:10.3109/14756366.2012.670807 (Atatürk University, 2013)
# pIC50, pKi: −log10 of the molar value.
# Target: Carbonic anhydrase 1 (Homo sapiens, UniProt P00915)
# Assay: Esterase Assay
# Conditions: pH 7.4
# Description: (§1) CA activity was assayed by following the change in absorbance at 348 nm of 4-nitrophenylacetate (NPA) to 4-nitrophenylate ion over a period of 3 min at 25°Cusing a spectrophotometer (CHEBIOS UV-VIS) according to the method described by Verpoorte et al. [Verpoorte et al., J. Biol. Chem., 242:4221-4229] The enzymatic reaction contained 1.4 mL 0.05 M Tris-SO4 buffer (pH 7.4), 1 mL 3 mM 4-NPA, 0.5 mL H2O and 0.1 mL enzyme solution (total volume, 3.0 mL). A reference measurement was obtained by preparing the mixture without the enzyme solution. All measurements were made in triplicate. The Ki values were determined from a series of experiments using three different bromophenols concentrations and 4-NPA as the substrate at five different concentrations to construct Lineweaver-Burk curves [Lineweaver et al., J. Am. Chem. Soc., 57:685-693].
# Sequence of Carbonic anhydrase 1 (P00915 whole entry): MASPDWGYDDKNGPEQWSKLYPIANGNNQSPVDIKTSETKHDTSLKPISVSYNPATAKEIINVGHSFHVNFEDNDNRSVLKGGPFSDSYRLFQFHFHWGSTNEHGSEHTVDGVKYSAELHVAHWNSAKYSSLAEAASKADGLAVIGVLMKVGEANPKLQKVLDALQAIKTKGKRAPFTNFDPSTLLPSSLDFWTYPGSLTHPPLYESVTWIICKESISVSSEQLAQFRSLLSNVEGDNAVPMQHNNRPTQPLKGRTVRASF
Structure (SMILES),pIC50,pKi
"O=C(c1ccc(O)c(O)c1)c1ccc(O)c(O)c1O [Carbonic anhydrase isoenzymes inhibitor, 5]",4.56,4.49
"O=C(c1ccc(O)c(O)c1)c1cc(Br)c(O)c(O)c1O [Carbonic anhydrase isoenzymes inhibitor, 13]",5.16,5.17
"O=C(c1cc(O)c(O)cc1Br)c1cc(Br)c(O)c(O)c1O [Carbonic anhydrase isoenzymes inhibitor, 14]",5.49,5.92

# More lines, in order of rising pIC50, values ahead:
pIC50,pKi,Structure (SMILES)
4.27,5.08,"Oc1ccc(Cc2ccc(O)c(O)c2O)cc1O [Carbonic anhydrase isoenzymes inhibitor, 15]"
5.37,5.59,"Oc1cc(Br)c(Cc2cc(Br)c(O)c(O)c2O)cc1O [Carbonic anhydrase isoenzymes inhibitor, 16]"

# Target: Carbonic anhydrase 2 (Homo sapiens, UniProt P00918)
# Assay: Esterase Assay
# Conditions: pH 7.4
# Description: as §1
Structure (SMILES),pIC50,pKi
"O=C(c1ccc(O)c(O)c1)c1ccc(O)c(O)c1O [Carbonic anhydrase isoenzymes inhibitor, 5]",3.85,4.64
"O=C(c1ccc(O)c(O)c1)c1cc(Br)c(O)c(O)c1O [Carbonic anhydrase isoenzymes inhibitor, 13]",4.73,5.49
"O=C(c1cc(O)c(O)cc1Br)c1cc(Br)c(O)c(O)c1O [Carbonic anhydrase isoenzymes inhibitor, 14]",4.61,4.54

# Next, values leading:
pIC50,pKi,Structure (SMILES)
4.10,4.37,"Oc1ccc(Cc2ccc(O)c(O)c2O)cc1O [Carbonic anhydrase isoenzymes inhibitor, 15]"
4.20,–,"Oc1cc(Br)c(Cc2cc(Br)c(O)c(O)c2O)cc1O [Carbonic anhydrase isoenzymes inhibitor, 16]"
